Experimental data: patent US20180161292A1, “NUTRITIONAL COMPOSITIONS CONTAINING BUTYRATE AND USES THEREOF” (Mead Johnson Nutrition Company, priority 2016, published 2018)

Test system: oligodendrocyte precursor cells (OPCs)
Assay: OPC differentiation into mature oligodendric cells (MBP / PDGFRa immunostaining)
Format: cell-based, rat
Description: The OPCs were purified from P7 rat brain cortices. Rodent brain cortices were diced and dissociated with papain at 37° C. After trituration, […] were resuspended in a panning buffer and incubated at room temperature sequentially on the three immunopanning dishes: Ran-2 and GaIC were used for negative selection before positive selection with 04. OPCs were released from the panning dish using 0.05% Trypsin. OPCs were seeded onto PPL-coated coverslips at 200,000 per 25 mm circle coverslip in a chemically defined culture medium with PDGFa overnight.
Sodium Butyrate (NaB) was dissolved in sterile water and added into culture medium the next day to reach desire concentration. OPC coverslips were placed into 6-well dishes, 1 ml of NaB-containing culture medium without PDGFa was added to each well. Cells were cultured for 48 hours before fixation and immunostaining. PDGFRa antibody identifies OPCs and MBP (myelin basic protein) antibody labels differentiated oligodendrocytes. Percentage of MBP-positive cells out of all PDGFRa- and MBP-positives cells were quantified.
Examining a dose response for sodium butyrate on purified oligodendroglial cultures. Sodium butyrate was added to purified oligodendroglial cultures and cells were analyzed after 48 hours of treatment for effects on survival, proliferation and differentiation. Oligodendrocyte precursor cells were immunostained with PDGFRa shown in green, oligodendrocytes were immunostained with MBP in red, cell nuclei were labeled with DAPI in blue. Percentage of MBP-positive oligodendrocytes among all oligodendroglial cells was quantified at various concentrations of sodium butyrate. The asterisks represent significance based on Students t-test with the respective controls (*p<0.05, **p<0.01)

CCCC(=O)[O-].[Na+] [sodium butyrate]
number of oligodendric cells from OPC compared to the control (MBP immunohistochemistry) (250 μM sodium butyrate, FIG. 7): statistically significant increase
fold increase in the numbers of differentiated and matured oligodendric cells as compared to the control (250 μM sodium butyrate, purified OPCs from P7 rat brain cortices, 48 hours, FIG. 1): 2.6 fold
effect to promote OPC to differentiate into mature oligodendric cells (dose response 50 nM to 250 μM, 48 hours, FIG. 1): dose-dependent manner
increase in Oligo cells as compared to the control (each of the concentrations of sodium butyrate (50 nM, 500 nM, 5 μM, 50 μM, 250 μM), 48 hours, Student's t-test, FIG. 1): statistically significant increase
